Like-named read-outs stand apart in the source and are kept apart here. One block for each compound: values may come before it.
Legend:
[1] = design: method as in earlier work; conditions: acetonitrile; cited from earlier work
HeLa MCTS [2] = assay: 3D MCTS growth inhibition assay; format: cell-based, human; conditions: dark; 1–7 and H2TPP 20 μM, cisplatin 10 μM and 30 μM
Protocol: MCTS were treated with the sample (20 μM 1–7, 20 μM tetraphenylporphyrin H2TPP, 10 μM cisplatin, 30 μM cisplatin, 2% DMSO, v%) by replacing 50% of the media with drug supplemented media in the dark for 3 days. After this time, the MCTS were exposed to a 1-Photon (500 nm, 16.7 min, 10.0 mW cm^−2, and 10 J cm^−2) irradiation using a LED light source or 2-Photon (800 nm, 10 J cm^−2 with a section interval of 5 μm) irradiation using a LSM 880 (Carl Zeiss) laser scanning confocal microscope equipped with a Coherent Chameleon 2-Photon laser. The cell culture media was replaced every 2 days. The integrity and diameter of the MCTs was monitored with an Axio Observer Z1 (Carl Zeiss) phase contrast microscope every 24 h.

HeLa MCTS [3] = assay: (Photo-)cytotoxicity on 3D MCTS (ATP concentration); format: cell-based, human; conditions: 1-3 as chloride salts
Protocol: The cytotoxicity of the compounds in 3D MCTS was assessed by measurement of the ATP concentration. MCTS were treated with increasing concentrations of the compound (2% DMSO, v%) by replacing 50% of the media with drug supplemented media and incubation for 12 h. After this time, the MCTS were divided in three identical groups. The first group was strictly kept in the dark. The second group was exposed to a 1-Photon irradiation (500 nm, 16.7 min, 10.0 mW cm^−2, and 10 J cm^−2) using a LED light source and the third group was exposed to a 2-Photon irradiation (800 nm, 10 J cm^−2 with a section interval of 5 μm) using a LSM 880 (Carl Zeiss, Germany) laser scanning confocal microscope equipped with a Coherent Chameleon 2-Photon laser. After the irradiation, all groups were incubated additional 48 h. The ATP concertation was measured using a CellTiter-Glo 3D Cell Viability kit (Promega) by measuring the generated chemiluminescence with an infinite M200 PRO (Tecan) plate reader.

[4] = system: human glioblastoma astrocytoma (U373) cells; assay: (Photo-)cytotoxicity on 2D cell monolayers, U373;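 further: Resazurin-to-resorufin fluorescence viability readout, 8 h compound exposure then medium change, light dose 3.1 J cm^−2 at 480 nm or 9.5 J cm^−2 at 540 nm, analysed 40 h later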
Protocol: (§1) A total of 4 × 10^3 cells were seeded on 96-well plates and allowed to adhere overnight. The cells were treated with increasing concentrations of the sample diluted in cell media achieving a total volume of 200 μL. The cells were incubated with the sample for 8 h and, after this time, the medium refreshed. To study the phototoxic effect of the sample, the cells were exposed to 480 nm (spectral half-width: 20 nm, 10 min, 5.2 mW cm^−2, 3.1 J cm^−2) or 540 nm (spectral half-width: 30 nm, 40 min, 4.0 mW cm^−2, 9.5 J cm^−2) light using an Atlas Photonics LUMOS BIO irradiator. To study the dark cytotoxicity of the sample, the cells were not irradiated and the medium exchanged. The cells were grown for an additional 40 h at 37 °C. After this time, the medium was replaced with fresh medium containing resazurin with a final concentration of 0.2 mg mL^−1. The cells were incubated for 4 h and the amount of the fluorescent product resorufin determined (λex = 540 nm, λem = 590 nm) with a SpectraMax M2 Microplate Reader (Molecular Devices). The obtained data was analyzed with the GraphPad Prism software.

[5] = system: noncancerous retinal pigment epithelium (RPE-1) cells; assay: (Photo-)cytotoxicity on 2D cell monolayers, RPE-1
[6] = system: mouse colon carcinoma (CT-26) cells; assay: (Photo-)cytotoxicity on 2D cell monolayers, CT-26
Protocol: as §1

[7] = system: human cervical carcinoma (HeLa) cells; assay: (Photo-)cytotoxicity on 2D cell monolayers, HeLa; format: cell-based; conditions: for IC50: 1-3 as chloride salts
Protocol: as §1

[8] = Photostability (absorption spectra upon irradiation); format: physicochemical; conditions: 450 nm, 0 to 10 min (13.2 J cm^−2), air-saturated acetonitrile
Protocol: The sample was prepared in an air-saturated acetonitrile solution. Using a Atlas Photonics LUMOS BIO irradiator, the sample was constantly irradiated at 450 nm in time intervals from 0 to 10 min (13.2 J cm^−2). The absorption spectra from 350 to 700 nm was monitored with a SpectraMax M2 Microplate Reader (Molecular Devices) at each time interval. As positive and negative controls, respectively, [Ru(2,2′-bipyridine)3]Cl2 and Protoporphyrin IX were used.

[9] = system: human glioblastoma astrocytoma (U373) cells;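 further: Resazurin-to-resorufin fluorescence viability readout, 8 h compound exposure then medium change, light dose 3.1 J cm^−2 at 480 nm or 9.5 J cm^−2 at 540 nm, analysed 40 h later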
Protocol: as §1

[10] = system: noncancerous retinal pigment epithelium (RPE-1) cells
[11] = system: mouse colon carcinoma (CT-26) cells
Protocol: as §1

[12] = design: method as in PMID 10907495; conditions: cited from earlier work
[13] = Homo sapiens, dark, read-out: IC50 dark

SMILES: [Cl-].[Cl-].[Ru+2].c1ccc(-c2ccccn2)nc1.c1ccc(-c2ccccn2)nc1.c1ccc(-c2ccccn2)nc1 [[Ru(2,2′-bipyridine)3]Cl2]
Φem, luminescence quantum yield of the reference [1]: 5.9%

SMILES: C1=Cc2nc1c(-c1ccccc1)c1nc(c(-c3ccccc3)c3ccc([nH]3)c(-c3ccccc3)c3ccc([nH]3)c2-c2ccccc2)C=C1 [H2TPP, tetraphenylporphyrin, reference compound]
tumor growth inhibition effect (MCTS volume) (HeLa MCTS [2]): do not show any inhibitory effect
IC50 (HeLa MCTS [3]; [13]): > 100 µM
IC50 (HeLa MCTS [3]; Homo sapiens, light or radiation study, 1P 500 nm, read-out: IC50 1P irradiation (500 nm, 10 J cm-2)): > 100 µM
IC50 (HeLa MCTS [3]; Homo sapiens, light or radiation study, 2P 800 nm, section interval 5 μm, read-out: IC50 2P irradiation (800 nm, 10 J cm-2)): > 100 µM

SMILES: N.N.[Cl][Pt][Cl] [cisplatin, reference compound]
tumor growth inhibition effect (MCTS volume) (HeLa MCTS [2]): weak effect on the tumor growth
IC50 ([4]; read-out: IC50 dark, U373, dark, 1-3 as chloride salts): 17.6 µM
IC50 (HeLa MCTS [3]; dark, read-out: IC50 dark): 18.6 ± 1.3 µM
IC50 ([5]; read-out: IC50 dark, RPE-1, dark, 1-3 as chloride salts): 29.3 µM
IC50 ([6]; read-out: IC50 dark, CT-26, dark, 1-3 as chloride salts): 6.5 µM
IC50 ([7]; dark, read-out: IC50 dark): 10.5 µM

photostability (change of absorption spectra upon irradiation) [8]: drastically changed
IC50 [9]: 3.6 µM
IC50 [11]: 3.5 µM
SMILES: C=CC1=C(C)c2cc3[nH]c(cc4nc(cc5[nH]c(cc1n2)c(C)c5CCC(=O)O)C(CCC(=O)O)=C4C)c(C)c3C=C [PpIX, Protoporphyrin IX, reference compound]
IC50 ([4]; Homo sapiens, U373 MG, 10 min, read-out: IC50 480 nm (10 min, 3.1 J cm-2)): 3.3 µM
IC50 ([4]; Homo sapiens, U373 MG, read-out: IC50 dark): > 100 µM
PI (480 nm) ([4]; U373, dark vs 480 nm): > 30.3
PI (540 nm) ([4]; U373, dark vs 540 nm): > 27.8
IC50 ([5]; Homo sapiens, RPE-1, 40 min, read-out: IC50 540 nm (40 min, 9.5 J cm-2)): 3.3 µM
IC50 ([5]; Homo sapiens, RPE-1, read-out: IC50 dark): > 100 µM
PI (480 nm) ([5]; RPE-1, dark vs 480 nm): > 26.3
PI (540 nm) ([5]; RPE-1, dark vs 540 nm): > 30.3
PI (480 nm) ([6]; CT-26, dark vs 480 nm): > 28.6
PI (540 nm) ([6]; CT-26, dark vs 540 nm): > 24.4
IC50 ([6]; Mus musculus, CT26, 40 min, read-out: IC50 540 nm (40 min, 9.5 J cm-2)): 4.1 µM
IC50 ([6]; Mus musculus, CT26, read-out: IC50 dark): > 100 µM
IC50 ([7]; Homo sapiens, 10 min, 480 nm, read-out: IC50 480 nm (10 min, 3.1 J cm-2)): 2.5 µM
IC50 ([7]; Homo sapiens, 40 min, 540 nm, read-out: IC50 540 nm (40 min, 9.5 J cm-2)): 2.1 µM
IC50 [7, 13]: > 100 µM
PI (480 nm) ([7]; dark vs 480 nm): > 40.0
PI (540 nm) ([7]; dark vs 540 nm): > 47.6
IC50 [10]: 3.8 µM

SMILES: O=C([O-])c1c(Cl)c(Cl)c(Cl)c(Cl)c1-c1c2cc(I)c(=O)c(I)c-2oc2c(I)c([O-])c(I)cc12.[Na+].[Na+] [Rose Bengal]
Φ, singlet oxygen quantum yield of the reference [12]: 76%

From PMC7320011, “Rationally designed ruthenium complexes for 1- and 2-photon photodynamic therapy” (Nature Communications, 2020)
